We go through four compounds from patent US20240376435A1, “KIDNEY ORGANOID AND METHOD FOR PRODUCING SAME” (OTSUKA PHARMACEUTICAL CO., LTD., priority 2021, published 2024).

The subject of assay [1] is proximal tubule marker genes. Kind of assay: Expression level of proximal tubule marker genes in kidney organoid (LTL MACS, quantitative PCR). The format is cell-based, human. To be noted: for expression levels of almost all proximal tubule marker genes: agonist singly at 1 μM, eight days from day 15, among Control, CP1 and 9cisRA1 groups; for expression levels of maturation markers of proximal tubular cells: ACE2, AQP6, CUBN. Here is the method: (§1) The kidney organoid was transferred to a centrifuge tube, and a cell dissociation solution (DPBS (+), 5 mg/mL Bacillus Licheniformis Protease (Sigma-Aldrich), 125 U/mL DNasc (Roche)) was added to the centrifuge tube. Up to 12 organoids were placed in one centrifuge tube. The centrifuge tube was incubated at 6° C. for 30 minutes. During the 30-minute incubation, pipetting was performed every five minutes to prepare a cell suspension containing cells separated from the organoids. To 1 mL of the obtained cell suspension, 4 mL of ice-cold diluted solution A (DPBS (−), 0.5% FBS, 2 mM EDTA, 125 U/mL DNase) was added. The centrifuge tube containing the diluted cell suspension was centrifuged at 300 rcf and 4° C. for 10 minutes, and the supernatant was removed. An ice-cooled diluted solution A was added to the precipitate for resuspension. The cell suspension was centrifuged again and the precipitate was resuspended in the diluted solution A. The obtained cell suspension was transferred to a tube with a 35 μm filter (Falcon) and passed through the filter to prepare a cell suspension containing single cells.
LTL-biotin (1:50) was added to the prepared cell suspension containing single cells and incubated at 4° C. for 15 minutes. Thereafter, the cell suspension was centrifuged at 300 rcf and 4° C. for five minutes, and the supernatant was removed. An ice-cooled diluted solution A was added to the precipitate for resuspension. Centrifuging the cell suspension and obtaining a cell suspension from the precipitate were performed two more times. Anti-biotin microBeads Ultra-Pure was added to the obtained cell suspension in the diluted solution A and incubated at 4° C. for 15 minutes. Thereafter, the cell suspension was centrifuged at 300 ref and 4° C. for five minutes, and the supernatant was removed. The ice-cooled diluted solution A was added to the precipitate for resuspension. This operation was repeated two more times. From the obtained cell suspension in the diluted solution A, cells to which LTL binds (also referred to as LTL-binding cells or LTL-positive cells) were obtained by a MACS method. More specifically, the cell suspension was applied to an MS column (Miltenyi Biotec B.V. & Co. KG) fixed in a magnetic field, and LTL-positive proximal tubular cells were obtained as a positive fraction.
Total RNA was extracted from the obtained cell suspension containing LTL-positive proximal tubular cells with a Purelink RNA micro kit (Thermofisher Scientific Inc.). Using total RNA obtained as a template, cDNA synthesis was performed using PrimeScript™ RTmastermix (Perfect Real Time) (Takara Bio Inc.). The synthesized cDNA was quantified by real-time PCR with TB Green® Premix Ex Taq™ II (Tli RNase H Plus) (TaKaRa Bio Inc.). Expression level analysis was performed using this quantitative PCR.
On the 15th day of differentiation induction, the induction medium C was replaced with STEMdiff APEL2 medium (0.3 μM CP775146, 1 μM 9-cis retinoic acid, 1% PFHM II, Antibiotic-Antimycotic), and the obtained early kidney organoids were further cultured for eight days (until the 23rd day of differentiation induction).
On the 23rd day of differentiation induction, the degree of maturation of the proximal tubule was examined. The degree of maturation was determined based on the expression level of maturation markers of proximal tubular cells in the kidney organoid by the MACS method with LTL.
In the step C, CP1 group was prepared by culturing, for eight days, the kidney organoid on the 15th day of differentiation induction in STEMdiff APEL2 medium (1 μM CP775146, 1% PFHM II, Antibiotic-Antimycotic), which is a medium obtained by removing retinoic acid from the induction medium C. […]

The subject of assay [2] is PPARA downstream gene group. Kind of assay: Expression level of PPARA downstream gene group in kidney organoid (LTL MACS, quantitative PCR). The format is cell-based, human. Particulars: agonist singly at 1 μM, eight days from day 15; among Control, CP1 and 9cisRA1 groups. The procedure:
as §1, with “The cell suspension was centrifuged again and the precipitate was resuspended in the diluted solution A. The obtained cell suspension was transferred to a tube with a 35 μm filter (Falcon) and passed through the filter to prepare a cell suspension containing single cells.” left out
Total RNA was extracted from the obtained cell suspension containing LTL-positive proximal tubular cells with a Purelink RNA micro kit (Thermofisher Scientific Inc.). […] The synthesized cDNA was quantified by real-time PCR with TB Green® Premix Ex Taq™ II (Tli RNase H Plus) (TaKaRa Bio Inc.). Expression level analysis was performed using this quantitative PCR. […]

Take `Cc1cccc(Nc2cc(Cl)nc(SCC(=O)O)n2)c1C` [pirinic acid]: the “expression of proximal tubule markers” value in assay [1] (Example 9, pirinic acid alone in step C, n=3) is “increased”.

Take `CC1=C(/C=C/C(C)=C\C=C\C(C)=C\C(=O)O)C(C)(C)CCC1` [9-cis retinoic acid]: the “expression levels of almost all PPARA downstream gene groups” value in assay [2] is recorded as “No significant difference”. For the same compound, the “expression levels of almost all proximal tubule marker genes” value in assay [1] was “No significant difference”.

With `CCC(=O)NC[C@H](Cc1ccc(OCCc2nc(-c3ccccc3)oc2C)cc1)N/C(C)=C\C(=O)c1ccc(C(F)(F)F)cc1` [GW6471], the “expression levels of maturation markers of proximal tubular cells” value in assay [1] (Comparative Example 1, PPARA antagonist at a predetermined concentration in step C, vs control, UGT2A3, AZGP1, BHMT, LRP2, ABCB1, APOA1, APOC3, FABP1) is “significantly decreased”; in assay [1] (Comparative Example 2, RXR antagonist in step C, vs control, UGT2A3, AZGP1, SLC39A4, BHMT, LRP2, ABCB1, APOA1, APOC3, CYP27A1, FABP1) it was “significantly decreased”. For the same compound, the “expression levels of SLC39A4 and CYP27A1” value in assay [1] (Comparative Example 1, PPARA antagonist in step C, vs control) is “tendency for the expression levels of SLC39A4 (FIG. 12c) and CYP27A1 (FIG. 12l) to decrease”.

`CC(C)c1ccc(CC(=O)N2CCC[C@@H](c3cccc(OC(C)(C)C(=O)O)c3)C2)cc1` [CP775146]: the “expression levels of almost all PPARA downstream gene groups” value in assay [2] is on record as “No significant difference”. Besides, in assay [1], the “expression levels of almost all proximal tubule marker genes” value is recorded as “No significant difference”.
